According to ChEMBL document CHEMBL4382233, “Discovery of novel arylethenesulfonyl fluorides as potential candidates against methicillin-resistant of Staphylococcus aureus (MRSA) for overcoming multidrug resistance of bacterial infections” (2019):
Values after ≈ are worked out from the molar mass of the structure shown. Active and inactive are the calls of the source. The calls are words filed in the database; no cut-off is given here.

Experiments:
[1] = test system: Staphylococcus aureus; experiment: Induction of pore formation in methicillin-resistant Staphylococcus aureus cell membrane assessed as increase in ferricyanide mediated cellular leakage after 2 hrs by DCPIP dye-based cyclic voltammetric analysis; assay type: functional, organism-based
[2] = test system: Staphylococcus haemolyticus; experiment: Antibacterial activity against methicillin-resistant Staphylococcus haemolyticus assessed as zone of inhibition at 50 ug/mL after 24 hrs by agar disc diffusion method; assay type: functional; settings: read-out: IZ
[3] = test system: Staphylococcus aureus; experiment: Induction of cellular content release in methicillin-resistant Staphylococcus aureus assessed as DNA content by measuring optical density at 260 nm at MIC after 240 mins by UV-visible spectrophotometric analysis; assay type: functional
[4] = test system: Staphylococcus epidermidis; experiment: Antibacterial activity against methicillin-resistant Staphylococcus epidermidis assessed as zone of inhibition at 20 ug/mL after 24 hrs by agar disc diffusion method; assay type: functional; settings: read-out: IZ
[5] = test system: Staphylococcus haemolyticus; experiment: Antibacterial activity against methicillin-resistant Staphylococcus haemolyticus after overnight incubation by micro broth dilution analysis; assay type: functional
[6] = test system: Staphylococcus haemolyticus; experiment: Antibacterial activity against methicillin-resistant Staphylococcus haemolyticus assessed as zone of inhibition at 800 ng/mL after 24 hrs by agar disc diffusion method; assay type: functional; settings: read-out: IZ
[7] = test system: Staphylococcus aureus; experiment: Antibacterial activity against methicillin-resistant Staphylococcus aureus assessed as zone of inhibition at 800 ng/mL after 24 hrs by agar disc diffusion method; assay type: functional; settings: read-out: IZ
[8] = test system: Staphylococcus haemolyticus; experiment: Antibacterial activity against methicillin-resistant Staphylococcus haemolyticus assessed as zone of inhibition at 200 ng/mL after 24 hrs by agar disc diffusion method; assay type: functional; settings: read-out: IZ
[9] = test system: Staphylococcus aureus; experiment: Induction of pore formation in methicillin-resistant Staphylococcus aureus cell membrane assessed as increase in ferricyanide mediated DNA damage after 2 hrs by DCPIP dye-based cyclic voltammetric analysis; assay type: functional, organism-based
[10] = test system: Staphylococcus aureus; experiment: Induction of pore formation in methicillin-resistant Staphylococcus aureus cell membrane assessed as increase in ferricyanide mediated potassium efflux after 2 hrs by DCPIP dye-based cyclic voltammetric analysis; assay type: functional, organism-based
[11] = test system: Staphylococcus aureus; experiment: Antibacterial activity against methicillin-resistant Staphylococcus aureus assessed as zone of inhibition at 200 ng/mL after 24 hrs by agar disc diffusion method; assay type: functional; settings: read-out: IZ
[12] = test system: Staphylococcus aureus; experiment: Antibacterial activity against methicillin-resistant Staphylococcus aureus assessed as zone of inhibition at 50 ug/mL after 24 hrs by agar disc diffusion method; assay type: functional; settings: read-out: IZ
[13] = test system: Staphylococcus aureus; experiment: Antibiofilm activity against methicillin-resistant Staphylococcus aureus at MIC after 24 hrs by crystal violet staining-based UV-visible spectrophotometric analysis; assay type: functional, organism-based
[14] = test system: Staphylococcus haemolyticus; experiment: Antibacterial activity against methicillin-resistant Staphylococcus haemolyticus assessed as zone of inhibition at 400 ng/mL after 24 hrs by agar disc diffusion method; assay type: functional; settings: read-out: IZ
[15] = test system: Staphylococcus epidermidis; experiment: Antibacterial activity against methicillin-resistant Staphylococcus epidermidis after overnight incubation by micro broth dilution analysis; assay type: functional
[16] = test system: Staphylococcus aureus; experiment: Antibiofilm activity against methicillin-resistant Staphylococcus aureus planktonic biofilm assessed as optical density at 492 nm at MIC after 24 hrs by crystal violet staining-based UV-visible spectrophotometric analysis; assay type: functional
[17] = test system: Staphylococcus aureus; experiment: Antibacterial activity against methicillin-resistant Staphylococcus aureus after overnight incubation by micro broth dilution analysis; assay type: functional
[18] = test system: Staphylococcus aureus; experiment: Antibacterial activity against methicillin-resistant Staphylococcus aureus assessed as zone of inhibition at 400 ng/mL after 24 hrs by agar disc diffusion method; assay type: functional; settings: read-out: IZ
[19] = test system: Staphylococcus epidermidis; experiment: Antibacterial activity against methicillin-resistant Staphylococcus epidermidis assessed as zone of inhibition at 800 ng/mL after 24 hrs by agar disc diffusion method; assay type: functional; settings: read-out: IZ
[20] = test system: Staphylococcus epidermidis; experiment: Antibacterial activity against methicillin-resistant Staphylococcus epidermidis assessed as zone of inhibition at 400 ng/mL after 24 hrs by agar disc diffusion method; assay type: functional; settings: read-out: IZ
[21] = test system: Staphylococcus aureus; experiment: Antibiofilm activity against methicillin-resistant Staphylococcus aureus assessed as optical density at 492 nm at 1 to 2 times MIC after 24 hrs by crystal violet staining-based UV-visible spectrophotometric analysis; assay type: functional
[22] = test system: Staphylococcus epidermidis; experiment: Antibacterial activity against methicillin-resistant Staphylococcus epidermidis assessed as zone of inhibition at 200 ng/mL after 24 hrs by agar disc diffusion method; assay type: functional; settings: read-out: IZ
[23] = test system: Staphylococcus aureus; experiment: Antibiofilm activity against methicillin-resistant Staphylococcus aureus at 2 times MIC after 24 hrs by crystal violet staining-based UV-visible spectrophotometric analysis; assay type: functional, organism-based
[24] = test system: Staphylococcus aureus; experiment: Antibiofilm activity against methicillin-resistant Staphylococcus aureus assessed as reduction in adherence of planktonic bacteria at MIC up to 24 hrs by SEM analysis; assay type: functional, organism-based
[25] = test system: Staphylococcus aureus; experiment: Antibacterial activity against methicillin-resistant Staphylococcus aureus at MIC by SEM analysis; assay type: functional, organism-based; settings: TDE = time-dependent effect
[26] = test system: Staphylococcus aureus; experiment: Induction of membrane disruption in methicillin-resistant Staphylococcus aureus at MIC up to 24 hrs by SEM analysis; assay type: functional, organism-based
[27] = test system: Staphylococcus haemolyticus; experiment: Antibacterial activity against methicillin-resistant Staphylococcus haemolyticus assessed as zone of inhibition at 10 ug/mL after 24 hrs by agar disc diffusion method; assay type: functional; settings: read-out: IZ
[28] = test system: Staphylococcus aureus; experiment: Antibacterial activity against methicillin-resistant Staphylococcus aureus assessed as zone of inhibition at 10 ug/mL after 24 hrs by agar disc diffusion method; assay type: functional; settings: read-out: IZ
[29] = test system: Staphylococcus epidermidis; experiment: Antibacterial activity against methicillin-resistant Staphylococcus epidermidis assessed as zone of inhibition at 10 ug/mL after 24 hrs by agar disc diffusion method; assay type: functional; settings: read-out: IZ
[30] = test system: Staphylococcus epidermidis; experiment: Antibacterial activity against methicillin-resistant Staphylococcus epidermidis assessed as zone of inhibition at 30 ug/mL after 24 hrs by agar disc diffusion method; assay type: functional; settings: read-out: IZ
[31] = test system: Staphylococcus haemolyticus; experiment: Antibacterial activity against methicillin-resistant Staphylococcus haemolyticus assessed as zone of inhibition at 30 ug/mL after 24 hrs by agar disc diffusion method; assay type: functional; settings: read-out: IZ
[32] = test system: Staphylococcus aureus; experiment: Antibacterial activity against methicillin-resistant Staphylococcus aureus assessed as zone of inhibition at 30 ug/mL after 24 hrs by agar disc diffusion method; assay type: functional; settings: read-out: IZ

Compound | Activity [1] | zone of inhibition at 50 µg/mL [2] [mm] | OD [3] | zone of inhibition at 20 µg/mL [4] [mm] | MIC99 [5] [µg/mL] | zone of inhibition at 0.8 µg/mL [6] [mm] | zone of inhibition at 0.8 µg/mL [7] [mm] | zone of inhibition at 0.2 µg/mL [8] [mm] | Activity [9] | Activity [10] | zone of inhibition at 0.2 µg/mL [11] [mm] | zone of inhibition at 50 µg/mL [12] [mm] | Activity [13] | zone of inhibition at 0.4 µg/mL [14] [mm] | MIC99 [15] [µg/mL] | OD [16] | MIC99 [17] [µg/mL] | zone of inhibition at 0.4 µg/mL [18] [mm] | zone of inhibition at 0.8 µg/mL [19] [mm] | zone of inhibition at 0.4 µg/mL [20] [mm] | also measured
O=S(=O)(F)/C=C/c1cc(Cl)cc(Cl)c1 | Active | 13.1 | 1.34 | 4.4 | 16.3 (≈ 63.9 µM) | 5.1 | 14.2 | 0 | Active | Active | 6.2 | 20.1 | Active | 3.3 | 48.1 (≈ 188 µM) | 0.825 | 0.812 (≈ 3.18 µM) | 10.2 |  |  | 
O=S(=O)(F)/C=C/c1ccc(Cl)cc1 | Active | 7.2 | 1.28 | 10.3 | 0.846 (≈ 3.83 µM) | 71 | 10 | 4.1 | Active | Active | 6.3 | 8.2 | Active | 5.1 | 0.83 (≈ 3.76 µM) | 0.66 | 0.818 (≈ 3.71 µM) | 8.2 | 8.4 | 7.2 | OD [21]: 0.66; zone of inhibition at 0.2 µg/mL [22]: 5.2 mm
CC(=O)c1cccc(/C=C/S(=O)(=O)F)c1 | Active | 8.2 | 1.28 | 3.3 | 0.843 (≈ 3.69 µM) | 6.2 | 8.1 | 4.2 | Active | Active | 5.2 | 10.1 |  | 5.2 | 55.6 (≈ 244 µM) |  | 0.851 (≈ 3.73 µM) | 7.5 |  |  | Activity [23]: Active
N#Cc1ccc(/C=C/S(=O)(=O)F)cc1 | Active | 7.2 | 1.42 | 7.5 | 0.847 (≈ 4.01 µM) | 6.2 | 8.5 | 4.2 | Active | Active | 6.1 | 11.4 | Active | 5.1 | 0.831 (≈ 3.93 µM) | 0.685 | 0.84 (≈ 3.98 µM) | 7.3 | 7.6 | 6.3 | OD [21]: 0.68; zone of inhibition at 0.2 µg/mL [22]: 5.2 mm
O=S(=O)(F)/C=C/c1ccc(C(F)(F)F)nc1 |  | 5.5 | 1.67 | 8.5 | 40 (≈ 157 µM) |  | 11.2 |  |  |  | 5.1 | 12.2 | Active |  | 0.838 (≈ 3.28 µM) | 0.815 | 0.811 (≈ 3.18 µM) | 7.2 | 7.2 | 5.1 | zone of inhibition at 0.2 µg/mL [22]: 4.2 mm
O=S(=O)(F)/C=C/c1cc(Cl)nc(Cl)c1 | Active | 7.2 | 1.85 | 7.1 | 0.842 (≈ 3.29 µM) | 7.4 | 11.4 | 5.2 | Active | Active | 7.1 | 12.1 | Active | 6.5 | 0.84 (≈ 3.28 µM) | 0.725 | 0.811 (≈ 3.17 µM) | 9.2 | 7.2 | 6.3 | Activity [24]: Active; Activity [25]: Tde; OD [21]: 0.72; zone of inhibition at 0.2 µg/mL [22]: 5.4 mm; Activity [26]: Active
CC1(C)S[C@@H]2[C@H](NC(=O)[C@H](N)c3ccccc3)C(=O)N2[C@H]1C(=O)O [AMPICILLIN] |  |  |  |  | 10.1 (≈ 28.9 µM) |  |  |  |  |  |  |  |  |  | 7.15 (≈ 20.5 µM) | 0.745 | 0.12 (≈ 0.343 µM) |  |  |  | zone of inhibition at 10 µg/mL [27]: 7.6 mm; Activity [23]: Active; zone of inhibition at 10 µg/mL [28]: 9.95 mm; zone of inhibition at 10 µg/mL [29]: 11.7 mm
NC[C@H]1O[C@H](O[C@H]2[C@H](O)[C@@H](O[C@H]3O[C@H](CO)[C@@H](O)[C@H](N)[C@H]3O)[C@H](N)C[C@@H]2N)[C@H](O)[C@@H](O)[C@@H]1O [KANAMYCIN] |  |  |  |  | 21.2 (≈ 43.7 µM) |  |  |  |  |  |  |  |  |  | 30.1 (≈ 62.2 µM) | 0.715 | 9.12 (≈ 18.8 µM) |  |  |  | Activity [23]: Active; zone of inhibition at 30 µg/mL [30]: 8.3 mm; zone of inhibition at 30 µg/mL [31]: 4.81 mm; zone of inhibition at 30 µg/mL [32]: 12 mm
CCn1cc(C(=O)O)c(=O)c2cc(F)c(N3CCNCC3)cc21 [NORFLOXACIN] |  |  |  |  | 0.58 (≈ 1.82 µM) |  |  |  |  |  |  |  |  |  | 0.73 (≈ 2.29 µM) | 0.695 | 0.61 (≈ 1.91 µM) |  |  |  | Activity [23]: Active; zone of inhibition at 30 µg/mL [30]: 9.07 mm; zone of inhibition at 30 µg/mL [31]: 12.7 mm; zone of inhibition at 30 µg/mL [32]: 10 mm
CS(=O)(=O)c1cccc(/C=C/S(=O)(=O)F)c1 | Active | 6.3 | 1.86 | 6.2 | 39.1 (≈ 148 µM) |  | 10.2 |  | Active | Active | 6.4 | 10 | Active |  | 44.2 (≈ 167 µM) | 0.612 | 0.81 (≈ 3.06 µM) | 7.1 |  |  | OD [21]: 0.61
Cc1ccc(/C=C/S(=O)(=O)F)cc1 |  | 6.3 | 1.48 | 6.4 | 40.1 (≈ 201 µM) |  | 7.1 |  |  |  | 4.1 | 10.3 | Active |  | 44.2 (≈ 221 µM) | 0.815 | 0.836 (≈ 4.18 µM) | 5.2 |  |  | 
